ChEMBL document CHEMBL5352478, “Novel pyridine-containing histone deacetylase inhibitors strongly arrest proliferation, induce apoptosis and modulate miRNAs in cancer cells” (Eur J Med Chem, 2023)

Key:
A549 = assay: cells; format: functional, cell-based; details: Homo sapiens, A549, 72 h
K562 = assay: cells; format: functional, cell-based; details: Homo sapiens, K562, 72 h
Histone deacetylase 1 = Histone deacetylase 1 (Homo sapiens, UniProt Q13547)
Histone deacetylase 4 = Histone deacetylase 4 (Homo sapiens, UniProt P56524)
Chain of Histone deacetylase 4 (P56524 whole entry): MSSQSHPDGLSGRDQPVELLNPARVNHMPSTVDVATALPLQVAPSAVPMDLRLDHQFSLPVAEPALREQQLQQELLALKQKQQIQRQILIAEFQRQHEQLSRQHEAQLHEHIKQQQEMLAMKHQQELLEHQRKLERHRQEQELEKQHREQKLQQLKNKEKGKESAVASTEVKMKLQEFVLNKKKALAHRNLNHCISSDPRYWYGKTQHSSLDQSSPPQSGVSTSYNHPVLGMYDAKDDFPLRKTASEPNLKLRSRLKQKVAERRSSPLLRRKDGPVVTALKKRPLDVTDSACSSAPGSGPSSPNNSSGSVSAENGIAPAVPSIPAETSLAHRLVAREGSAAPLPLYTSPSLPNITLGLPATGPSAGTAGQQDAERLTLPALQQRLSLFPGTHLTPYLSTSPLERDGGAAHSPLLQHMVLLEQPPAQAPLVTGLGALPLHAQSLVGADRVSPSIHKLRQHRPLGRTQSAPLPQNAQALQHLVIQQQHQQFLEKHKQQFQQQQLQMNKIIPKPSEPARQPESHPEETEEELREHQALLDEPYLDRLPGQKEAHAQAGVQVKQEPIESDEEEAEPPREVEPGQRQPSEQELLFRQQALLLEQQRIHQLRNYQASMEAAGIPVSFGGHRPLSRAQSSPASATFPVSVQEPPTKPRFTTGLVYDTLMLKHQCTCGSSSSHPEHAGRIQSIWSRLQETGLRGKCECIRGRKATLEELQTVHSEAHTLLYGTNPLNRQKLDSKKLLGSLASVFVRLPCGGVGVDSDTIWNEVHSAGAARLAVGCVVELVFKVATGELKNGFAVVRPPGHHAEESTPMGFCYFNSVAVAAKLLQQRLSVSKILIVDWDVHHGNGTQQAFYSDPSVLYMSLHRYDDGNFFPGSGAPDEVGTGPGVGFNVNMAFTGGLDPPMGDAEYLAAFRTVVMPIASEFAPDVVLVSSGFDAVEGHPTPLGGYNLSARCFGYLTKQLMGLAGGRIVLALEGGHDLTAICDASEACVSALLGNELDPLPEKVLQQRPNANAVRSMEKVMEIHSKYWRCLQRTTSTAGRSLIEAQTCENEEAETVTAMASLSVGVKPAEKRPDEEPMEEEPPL

[1] = biological target: T1, Protein deacetylase HDAC6 (Homo sapiens, UniProt Q9UBN7)
T1 sequence (Q9UBN7 whole entry): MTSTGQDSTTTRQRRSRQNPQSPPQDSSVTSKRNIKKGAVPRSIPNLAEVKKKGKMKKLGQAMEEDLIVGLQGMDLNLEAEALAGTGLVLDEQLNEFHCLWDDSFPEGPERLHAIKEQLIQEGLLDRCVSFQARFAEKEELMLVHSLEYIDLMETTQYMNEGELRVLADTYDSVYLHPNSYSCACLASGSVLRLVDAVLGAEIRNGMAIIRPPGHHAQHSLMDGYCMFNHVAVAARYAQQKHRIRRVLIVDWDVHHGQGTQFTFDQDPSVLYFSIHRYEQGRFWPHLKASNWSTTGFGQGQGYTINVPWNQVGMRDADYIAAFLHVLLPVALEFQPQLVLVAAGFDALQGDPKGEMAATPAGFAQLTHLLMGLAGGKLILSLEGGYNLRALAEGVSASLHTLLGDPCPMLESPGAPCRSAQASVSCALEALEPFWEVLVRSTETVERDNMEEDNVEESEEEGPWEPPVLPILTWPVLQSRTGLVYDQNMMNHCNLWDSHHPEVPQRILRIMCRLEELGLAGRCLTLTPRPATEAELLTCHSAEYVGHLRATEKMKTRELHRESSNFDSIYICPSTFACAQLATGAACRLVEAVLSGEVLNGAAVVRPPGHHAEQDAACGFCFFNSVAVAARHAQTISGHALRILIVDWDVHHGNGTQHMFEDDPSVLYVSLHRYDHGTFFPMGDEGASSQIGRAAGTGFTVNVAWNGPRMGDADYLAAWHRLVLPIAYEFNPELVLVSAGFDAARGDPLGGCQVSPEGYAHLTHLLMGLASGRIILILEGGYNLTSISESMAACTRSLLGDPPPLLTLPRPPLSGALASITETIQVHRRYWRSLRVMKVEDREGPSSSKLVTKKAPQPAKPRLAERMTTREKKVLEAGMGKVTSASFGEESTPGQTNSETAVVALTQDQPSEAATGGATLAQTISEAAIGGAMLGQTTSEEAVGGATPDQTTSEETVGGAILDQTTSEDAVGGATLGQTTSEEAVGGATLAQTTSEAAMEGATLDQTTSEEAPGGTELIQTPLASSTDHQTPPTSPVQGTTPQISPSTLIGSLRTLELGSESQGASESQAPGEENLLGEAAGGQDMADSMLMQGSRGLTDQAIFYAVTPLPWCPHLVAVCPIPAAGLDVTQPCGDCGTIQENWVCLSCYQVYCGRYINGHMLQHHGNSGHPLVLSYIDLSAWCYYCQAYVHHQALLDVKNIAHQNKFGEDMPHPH

Histone deacetylase 3 = Histone deacetylase 3 (Homo sapiens, UniProt O15379)
Chain of Histone deacetylase 3 (O15379 whole entry): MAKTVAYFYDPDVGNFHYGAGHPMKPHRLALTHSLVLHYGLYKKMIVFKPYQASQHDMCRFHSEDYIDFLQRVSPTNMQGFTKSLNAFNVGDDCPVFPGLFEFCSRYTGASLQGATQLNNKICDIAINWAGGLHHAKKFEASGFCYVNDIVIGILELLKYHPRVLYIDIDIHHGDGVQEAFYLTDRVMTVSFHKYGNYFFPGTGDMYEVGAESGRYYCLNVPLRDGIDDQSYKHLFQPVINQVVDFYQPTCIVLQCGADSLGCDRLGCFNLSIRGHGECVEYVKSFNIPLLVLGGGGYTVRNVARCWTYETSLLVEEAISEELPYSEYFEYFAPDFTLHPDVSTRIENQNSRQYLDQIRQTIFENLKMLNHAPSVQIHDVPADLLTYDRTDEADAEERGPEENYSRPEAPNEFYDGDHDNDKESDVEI

Histone deacetylase 8 [2] = biological target: T2, Histone deacetylase 8 (Homo sapiens, UniProt Q9BY41)
T2 sequence (Q9BY41 whole entry): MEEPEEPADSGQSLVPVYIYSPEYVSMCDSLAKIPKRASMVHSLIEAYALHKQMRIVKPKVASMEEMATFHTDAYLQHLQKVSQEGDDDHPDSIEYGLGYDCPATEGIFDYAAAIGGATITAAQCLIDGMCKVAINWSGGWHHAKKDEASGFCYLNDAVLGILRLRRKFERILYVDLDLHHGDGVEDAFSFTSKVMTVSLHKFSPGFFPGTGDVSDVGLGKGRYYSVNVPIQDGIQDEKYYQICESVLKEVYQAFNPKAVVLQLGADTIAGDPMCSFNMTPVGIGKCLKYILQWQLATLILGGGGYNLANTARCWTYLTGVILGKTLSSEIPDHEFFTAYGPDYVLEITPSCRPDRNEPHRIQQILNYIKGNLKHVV

HCT-116 = assay: cells; format: functional, cell-based; details: Homo sapiens, HCT-116, 72 h
Histone deacetylase 8 [3] = biological target: T2, Histone deacetylase 8; remark: listed apart in the source

Chain of Histone deacetylase 1 (Q13547 whole entry): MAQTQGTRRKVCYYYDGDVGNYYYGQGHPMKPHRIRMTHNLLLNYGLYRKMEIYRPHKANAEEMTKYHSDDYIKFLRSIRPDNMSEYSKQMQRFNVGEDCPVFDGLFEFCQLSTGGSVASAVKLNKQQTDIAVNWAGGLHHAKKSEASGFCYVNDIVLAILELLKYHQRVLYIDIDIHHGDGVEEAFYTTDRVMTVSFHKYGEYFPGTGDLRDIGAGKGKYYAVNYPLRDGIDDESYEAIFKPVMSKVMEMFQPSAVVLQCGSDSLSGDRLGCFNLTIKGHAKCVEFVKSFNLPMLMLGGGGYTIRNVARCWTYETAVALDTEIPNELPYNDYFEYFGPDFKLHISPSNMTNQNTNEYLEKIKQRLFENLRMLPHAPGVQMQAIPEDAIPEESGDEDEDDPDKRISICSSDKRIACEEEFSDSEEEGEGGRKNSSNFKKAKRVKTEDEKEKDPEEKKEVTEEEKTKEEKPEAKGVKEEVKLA

SMILES	IC50 (A549) [nM]	IC50 (K562) [nM]	IC50 (Histone deacetylase 1) [nM]	IC50 (Histone deacetylase 4)	IC50 [1]	IC50 (Histone deacetylase 3) [nM]	IC50 (Histone deacetylase 8 [2])	IC50 (HCT-116) [nM]	IC50 (Histone deacetylase 8 [3]) [nM]	IC50 (Histone deacetylase 4; read-out: IC50) [nM]	IC50 ([1]; read-out: IC50) [nM]
Nc1ccccc1NC(=O)/C=C/c1ccc(NC(=O)C(Cc2ccccc2)c2ccccc2)cn1 (stereo not drawn)	4300	1860	496	Not Active	Not Active	603	Not Active	2740	–	–	–
CCC(C(=O)Nc1ccc(C(=O)Nc2ccccc2N)nc1)c1ccccc1 (stereo not drawn)	–	–	321	Not Active	Not Active	433	–	–	66200	–	–
Nc1ccccc1NC(=O)/C=C/c1ccc(NC(=O)Cc2ccccc2)cn1	–	–	108	Not Active	Not Active	224	–	–	31400	–	–
Nc1ccccc1NC(=O)/C=C/c1ccc(NC(=O)Cc2ccc3ccccc3c2)cn1	7430	1700	203	Not Active	Not Active	414	–	3230	77100	–	–
CCC(C(=O)Nc1ccc(/C=C/C(=O)NO)nc1)c1ccccc1 (stereo not drawn)	–	–	77	–	–	36	–	–	104	17100	11
CC(C)C(C(=O)Nc1ccc(C(=O)NO)nc1)c1ccccc1 (stereo not drawn)	3750	1040	1010	–	–	681	–	1310	882	63200	41
CC(C)C(C(=O)Nc1ccc(/C=C/C(=O)NO)nc1)c1ccccc1 (stereo not drawn)	590	180	81	–	–	28	–	260	168	16000	10
O=C(/C=C/c1ccc(NC(=O)Cc2ccccc2)cn1)NO	2980	910	68	–	–	78	–	880	183	19300	13
Nc1ccccc1NC(=O)c1ccc(NC(=O)Cc2ccccc2)cn1	1350	540	201	Not Active	Not Active	248	–	560	77100	–	–
O=C(Cc1ccc2ccccc2c1)Nc1ccc(C(=O)NO)nc1	–	–	94000	–	–	207	–	–	976	15800	123
O=C(Cc1cccc2ccccc12)Nc1ccc(C(=O)NO)nc1	–	–	2850	–	–	1390	–	–	1810	30700	58
